The test is described as follows: Inhibition of pancreatic cholesterol esterase using p-nitrophenylacetate or cholesteryl [1-14C]-oleate as substrates.

As a reminder, the IC50 is the point on the concentration scale where inhibition reaches its midpoint. A lower IC50 goes with greater potency in that assay. Turning to `CC(C)(C)[C@H]1CC[C@H](CC(=O)C(F)(F)C(F)(F)F)CC1` [1-(4-tert-Butyl-cyclohexyl)-3,3,4,4,4-pentafluoro-butan-2-one], the IC50 amounted to 10 µM. In other words, the double-digit micromolar range.

As to `CCCCCCCCCCCCC(F)(F)C(=O)C[C@H]1CC[C@]2(C)CCCC[C@H]2C1` [3,3-Difluoro-1-((2S,4aS,8aS)-4a-methyl-decahydro-naphthalen-2-yl)-pentadecan-2-one], the IC50 was above 100 µM.

(Values after BindingDB's records for doi:10.1016/0960-894X(96)00290-9 (1996).)
